Columns and labels:
Experiment in all cases: relative viability (nuclei count vs DMSO), 5 days (fraction); higher = more cells survive
[1] = compound: C1CC1C(=O)NC2=NNC3=C2C=CC(=C3)C4=CC(=CC=C4)C(=O)NC5CC5 [XMD13-2] + CC1(C)CCC(c2ccc(Cl)cc2)=C(CN2CCN(c3ccc(C(=O)NS(=O)(=O)c4ccc(N[C@H](CCN5CCOCC5)CSc5ccccc5)c(S(=O)(=O)C(F)(F)F)c4)cc3)CC2)C1 [Navitoclax] (partner 0.5 µM)
Summary of the method: (§1)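 Relative viability was taken as the ratio of nuclei in treated wells to nuclei in vehicle wells. Lung cancer cell lines in 1536-well plates received compounds by pin tool one day after seeding, either one drug alone or a fixed anchor-drug dose plus five library-drug doses (not always all listed) in √10 steps. Nuclei were counted on 4× images after 5 days of treatment, and values are medians of duplicate plates.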

[2] = compound: C1CC1C(=O)NC2=NNC3=C2C=CC(=C3)C4=CC(=CC=C4)C(=O)NC5CC5 [XMD13-2] + C[C@]1(O)C[C@@H](c2nc(-c3ccc4ccc(-c5ccccc5)nc4c3)c3c(N)nccn32)C1 [Linsitinib] (partner 1 µM)
Summary of the method: as §1

[3] = compound: Cc1ccc(C(=O)Nc2cccc(C(F)(F)F)c2)cc1Nc1cncc(C(N)=O)c1 [ALW-II-49-7] + O=C(CCCCCCC(=O)Nc1ccccc1)NO [Vorinostat] (partner 1 µM)
Summary of the method: as §1

[4] = compound: Cc1nc(Nc2ncc(C(=O)Nc3c(C)cccc3Cl)s2)cc(N2CCN(CCO)CC2)n1 [Dasatinib] + COc1cc2c(Oc3ccc(NC(=O)C4(C(=O)Nc5ccc(F)cc5)CC4)cc3F)ccnc2cc1OCCCN1CCOCC1 [Foretinib] (partner 0.25 µM)
Summary of the method: as §1

Row | Cell Line | relative viability ([1]; first compound 0.05 µM) | relative viability ([1]; first compound 0.1581 µM) | relative viability ([1]; first compound 0.5 µM) | relative viability ([1]; first compound 1.581 µM) | relative viability ([1]; first compound 5 µM) | relative viability ([2]; first compound 0.05 µM) | relative viability ([2]; first compound 0.1581 µM) | relative viability ([2]; first compound 0.5 µM) | relative viability ([2]; first compound 1.581 µM) | relative viability ([2]; first compound 5 µM) | relative viability ([3]; first compound 0.08 µM) | relative viability ([3]; first compound 0.253 µM) | relative viability ([3]; first compound 0.8 µM) | relative viability ([3]; first compound 8 µM) | relative viability ([4]; first compound 0.005 µM) | relative viability ([4]; first compound 0.01581 µM) | relative viability ([4]; first compound 0.05 µM) | relative viability ([4]; first compound 0.1581 µM) | relative viability ([4]; first compound 0.5 µM) | relative viability ([3]; first compound 2.53 µM)
1 | NCI-H1395 | 1.25 | 1.16 | 1.23 | 1.11 | 1.1 | 1.06 | 0.984 | 1 | 1.11 | 1.28 | 0.649 | 0.699 | 0.733 | 0.569 | 1 | 1.08 | 1.04 | 0.585 | 0.331 | –
2 | HOP-62 | 1.18 | 1.07 | 1.19 | 1.05 | 1.04 | 1.03 | 0.971 | 1 | 1.09 | 0.913 | 0.547 | 0.696 | 0.588 | 0.298 | 1.18 | 1.12 | 1 | 0.518 | 0.197 | 0.523
3 | LK-2 | 1.19 | 0.843 | 0.905 | 0.957 | 0.738 | 0.715 | 0.518 | 0.554 | 0.676 | 0.422 | 0.327 | 0.315 | 0.225 | 0.247 | 1.08 | 0.967 | 0.656 | 0.588 | 0.304 | –
4 | SW 1573 | 1.54 | 1.27 | 0.94 | 0.876 | 0.88 | 0.82 | 0.745 | 0.849 | 0.71 | 0.577 | 0.612 | 0.663 | 0.652 | 0.567 | 1.05 | 0.746 | 0.783 | 0.695 | 0.525 | 0.648
5 | SK-LU-1 | 0.915 | 0.832 | 0.664 | 0.803 | 0.82 | 1.1 | 1.19 | 1.45 | 0.929 | 1.14 | 0.754 | 0.64 | 0.551 | 0.493 | 0.543 | 0.343 | 0.295 | 0.171 | 0.179 | 0.628
6 | NCI-H23 | 1.02 | 0.767 | 0.822 | 0.78 | 0.82 | 0.558 | 0.579 | 0.624 | 0.537 | 0.58 | 0.634 | 0.692 | 0.339 | 0.46 | 0.864 | 0.649 | 0.676 | 0.457 | 0.484 | 0.575
7 | NCI-H1355 | 0.971 | 0.941 | 0.904 | 0.899 | 0.89 | 0.973 | 0.834 | 0.851 | 0.825 | 0.894 | 0.63 | 0.618 | 0.615 | 0.597 | 1.03 | 0.719 | 0.908 | 0.722 | 0.644 | 0.591
8 | COR-L23 | 1.03 | 1.07 | 1.18 | 1.11 | 0.899 | 1.01 | 0.917 | 1.02 | 0.848 | 0.872 | 0.409 | 0.452 | 0.496 | 0.385 | 0.915 | 0.904 | 0.829 | 0.535 | 0.549 | 0.414
9 | NCI-H2023 | 1.01 | 1.03 | 0.893 | 0.968 | 1 | 0.697 | 0.684 | 0.572 | 0.649 | 0.854 | 0.683 | 0.688 | 0.434 | 0.625 | 0.642 | 0.749 | 0.434 | 0.377 | 0.297 | 0.64
10 | A-427 | 1.01 | 0.961 | 1.09 | 0.87 | 0.989 | 1.11 | 1.14 | 1.18 | 1.09 | 1 | 0.936 | 0.902 | 0.854 | 0.826 | 0.971 | 1.04 | 0.974 | 0.694 | 0.599 | 0.838
11 | NCI-H1793 | 0.48 | 0.394 | 0.485 | 0.426 | 0.509 | 0.882 | 0.811 | 0.852 | 0.713 | 0.999 | 0.816 | 0.811 | 0.616 | 0.431 | 0.553 | 0.528 | 0.374 | 0.337 | 0.359 | 0.798
12 | NCI-H596 | 0.99 | 0.975 | 0.917 | 0.898 | 1.15 | 1.12 | 1.13 | 1.01 | 1.05 | 1.22 | 0.488 | 0.574 | 0.586 | 0.456 | 0.688 | 0.66 | 0.521 | 0.376 | 0.291 | 0.683
13 | LU99A | 0.927 | 0.741 | 0.811 | 0.805 | 0.523 | 0.609 | 0.552 | 0.591 | 0.445 | 0.463 | – | 0.525 | 0.507 | 0.619 | 0.849 | – | 0.723 | 0.59 | 0.383 | 0.5
14 | IA-LM | 0.821 | 0.867 | 0.724 | 0.769 | 0.457 | 0.627 | 0.56 | 0.582 | 0.683 | 0.713 | 0.998 | 0.613 | 0.745 | 0.423 | 1.16 | 1.09 | 1.1 | 0.634 | 0.462 | 0.29
15 | NCI-H2009 | 1.22 | 1.15 | 1.22 | 1.14 | 1.21 | 1.19 | 1.19 | 1.13 | 1.2 | 1.16 | 0.749 | 0.838 | 0.731 | 0.657 | 1.15 | 0.984 | 0.925 | 0.882 | 0.216 | 0.695

Source: the supplement of paper PMC10307832
